Measured values: patent US20100324017A1, “ACYLGUANIDINE DERIVATIVE” (priority 2007, published 2010)
Where a name gives a salt, the structure may show the parent alone.

What follows are compounds tested against T1, human 5-HT5A receptor (Homo sapiens, UniProt P47898) (assay: Test of human 5-HT5A receptor binding inhibition ([3H]5-CT, HEK293 cell membrane)). Details: [3H]5-CT binding, membrane of HEK293 cell expressing human 5-HT5A receptor.
T1 construct: expressed in transfected cells; membrane preparation
T1 sequence (P47898 whole entry): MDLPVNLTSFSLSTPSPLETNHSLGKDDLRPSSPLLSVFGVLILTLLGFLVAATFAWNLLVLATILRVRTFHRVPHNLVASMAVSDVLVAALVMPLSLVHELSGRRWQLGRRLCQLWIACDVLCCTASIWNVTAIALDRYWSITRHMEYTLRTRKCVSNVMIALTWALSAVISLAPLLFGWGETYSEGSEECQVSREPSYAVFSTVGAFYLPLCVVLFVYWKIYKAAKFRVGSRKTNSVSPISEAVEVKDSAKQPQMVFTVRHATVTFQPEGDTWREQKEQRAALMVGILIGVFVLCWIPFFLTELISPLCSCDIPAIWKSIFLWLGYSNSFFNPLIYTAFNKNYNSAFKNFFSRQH
Experimental: An ORF of a human 5-HT5A receptor (Genbank AF498985) was cloned from a human hippocampal cDNA library, and then inserted into a pCR2.1 vector (Invitrogen), and Escherichia coli having the plasmid was mass cultured. Next, the human 5-HT5A receptor full-length cDNA sequence was analyzed, recombined into a pCDNA3.1 vector (Invitrogen) as an expression vector, and mass cultured. A human embryonic kidney-induced cell HEK293 cell (ATCC) was seeded, and the resulting expression plasmid (1 μg) above was added thereto together with LIPOFECTAMINE 2000 (Invitrogen; 2 μl), a gene was introduced into the HEK293 cell, and then Geneticin (G418 sulfate 500 μg/ml; Kanto Chemical Co., Inc.) was used as a drug-resistant marker to screen the expressing cell. Thus prepared gene-expressing recombinant cell was cultured in a D-MEM, 10% FCS, 1% Pc./Sm., 500 μg/ml G418 culture medium for 3 days. This experimental operation was conducted in accordance with a gene operation experiment manual of a known method (Sambrook, J. et al, Molecular Cloning-A Laboratory Manual“, Cold Spring Harabor Laboratory, NY, 1989), etc., an instruction appended in a reagent or the like.
(1) Preparation of a Membrane from an HEK293 Cell Forcibly Expressing a Human 5-HT5A Receptor
An HEK293 cell forcibly expressing a human 5-HT5A receptor was cultured in an F500 plate, and scraped for collection using a scraper. After centrifugation, the precipitates were collected and an incubation buffer (50 mM Tris (HCl) PH 7.4, 10 mM Mg504, 0.5 mM EDTA) was added thereto. After homogenization, it was further centrifuged, an incubation buffer was added to the precipitate, and the mixture was well suspended. These operations were repeatedly conducted, the protein concentration was then measured, and the preparation of a membrane was completed.
(2) Experiment on Human 5-HT5A Receptor Binding Inhibition
The compound to be tested (0.3 to 300 nM) and a 100 μM 5-CT solution in DMSO were added to a 96-well plate at 2 μl/well. The number of the wells to be measured under the same condition in one experiment was set at 2, and an average value thereof was used. It was suspended in an incubation buffer, and a HEK293 cell membrane forcibly expressing a human 5-HT5A receptor that had been prepared at 200 μg/ml was added thereto at 100 μl/well. The mixture was incubated at room temperature for 15 minutes, and a [^3H]5-CT solution (2 nM [^3H]5-CT, an incubation buffer) was then added thereto at 100 μl/well.
Separate from this, 100 μl of the solution was dispersed to a liquid scintillation vial, 2 ml of Aquasol II (registered trademark) was added thereto, followed by stirring, and the radioactivity was then measured with a liquid scintillation counter. The solution was incubated at 37° C. for 60 minutes. The reaction liquid was sucked to a 96-well GF/C filter plate that had been preliminarily treated with 0.2% polyethyleneimine, and washed six times with an ice-cooled 50 mM Tris (pH 7.5) buffer. The GF/C filter plate was dried.
MicroscintTMPS (registered trademark) was added thereto at 40 μl/well. The radioactivity remaining on the GF/C filter plate was measured in a top counter.
For the inhibitory activity for the binding of the [^3H]5-CT by the compound to be tested in each experiment, IC50 value was calculated by taking the radioactivity when only DMSO was added as 0% inhibition, and the radioactivity when 1 μM 5-CT was added as 100% inhibition. Apart from this, a Ki value was calculated from the Kd value of the [^3H]5-CT that had been determined by Scatchard analysis.
Ki=IC50 (1+Concentration of the ligands added/Kd (4.95 nM))
`NC(N)=NC(=O)c1ccc2c3ccccc3n(Cc3ccccc3)c2c1` [Example 37] was tested, and the Ki was 8.3 nM.
Compound `NC(N)=NC(=O)c1ccc2c3ccccc3n([C@H]3CC[C@@H](F)CC3)c2c1` [Example 143] has a Ki of at most 50 nM.
`Cc1cccc2c1c1ccc(C(=O)N=C(N)N)cc1n2C1CC=C(F)CC1` (stereo not drawn) [Example 161] showed a Ki of at most 50 nM.
`N/C(=N\C(=O)c1ccc2c3ccccc3n(C3CCOCC3)c2c1)NCc1ccco1` [Example 179] showed a Ki of at most 50 nM.
For `N/C(=N\C(=O)c1ccc2c3ccccc3n(C3CCOCC3)c2c1)NCC1COCCO1` (stereo not drawn) [Example 186], the Ki was at most 50 nM.
With `COCCN/C(N)=N/C(=O)c1ccc2c3ccccc3n(Cc3cccs3)c2c1` [Example 210] the Ki was at most 50 nM.
`NC(N)=NC(=O)c1ccc2c3ccccc3n(C3CCC3)c2c1` [Example 22] gave a Ki of at most 50 nM.
`N/C(=N\C(=O)c1ccc2c3ccccc3n(C3CCOCC3)c2c1)NC[C@@H]1CCCO1` [Example 187] showed a Ki of at most 50 nM.
With `NC(N)=NC(=O)c1ccc2c3ccccc3n([C@@H]3CCNC3)c2c1` [Example 175] the Ki was at most 50 nM.
With `CO[C@H]1CC[C@@H](n2c3ccccc3c3ccc(C(=O)N=C(N)N)cc32)CC1` [Example 148] the Ki was at most 50 nM.
With `CN/C(N)=N/C(=O)c1ccc2c3ccccc3n(C3CCOCC3)c2c1` [Example 120] the Ki was 2.2 nM.
`NC(N)=NC(=O)c1ccc2c3ccccc3n(-c3ccccn3)c2c1` [Example 102] gave a Ki of 5.3 nM.
In the case of `NC(N)=NC(=O)c1ccc2c3ccccc3n(C3CCCCC3)c2c1` [Example 24], the Ki is reported as at most 50 nM.
With `CC(C)n1c2cc(C(=O)N=C(N)N)ccc2c2c(O)cccc21` [Example 152] the Ki was at most 50 nM.
`Cc1ccsc1Cn1c2ccccc2c2ccc(C(=O)N=C(N)N)cc21` [Example 177] gave a Ki of at most 50 nM.
`N/C(=N\C(=O)c1ccc2c3ccccc3n(C3CCOCC3)c2c1)NC1CC1` [Example 164] gave a Ki of at most 50 nM.
`N#CCN1CCC(n2c3ccccc3c3ccc(C(=O)N=C(N)N)cc32)CC1` [Example 191] was tested, and the Ki was at most 50 nM.
For `COc1cccc(CN/C(N)=N/C(=O)c2ccc3c4ccccc4n(C4CCOCC4)c3c2)c1` [Example 194], the Ki was at most 50 nM.
`CC(C)N/C(N)=N\C(=O)c1ccc2c3ccccc3n(C3CCOCC3)c2c1` [Example 149] showed a Ki of at most 50 nM.
Work on `N/C(=N\C(=O)c1ccc2c3ccccc3n(C3CCOCC3)c2c1)NCC1CCCC1` [Example 205] yielded a Ki of at most 50 nM.
Compound `N/C(=N\C(=O)c1ccc2c3ccccc3n(C3CCOCC3)c2c1)Nc1ccccc1` [Example 181] has a Ki of at most 50 nM.
In the case of `NC(N)=NC(=O)c1ccc2c3ccccc3n(C(CF)CF)c2c1` [Example 160], the Ki is reported as at most 50 nM.
Work on `NC(N)=NC(=O)c1ccc2c3ccccc3n(Cc3ccc(F)s3)c2c1` [Example 116] yielded a Ki of at most 50 nM.
In the case of `COc1ccccc1CN/C(N)=N/C(=O)c1ccc2c3ccccc3n(C3CCOCC3)c2c1` [Example 195], the Ki is reported as at most 50 nM.
`COc1ccc(CN/C(N)=N/C(=O)c2ccc3c4ccccc4n(C4CCOCC4)c3c2)cc1` [Example 193] was tested, and the Ki was at most 50 nM.
`N/C(=N\C(=O)c1ccc2c3ccccc3n(C3CCOCC3)c2c1)NCc1ccccc1` [Example 159] was tested, and the Ki was 1.6 nM.
Work on `N/C(=N/C(=O)c1ccc2c3ccccc3n(C3CCOCC3)c2c1)NCCO` [Example 126] yielded a Ki of at most 50 nM.
`CC(C)C(=O)n1c2ccccc2c2ccc(C(=O)N=C(N)N)cc21` [Example 27] gave a Ki of 0.66 nM.
Compound `CC(C)n1c2ccccc2c2ccc(C(=O)N=C(N)N)cc21` [Example 1, N-(diaminomethylene)-9-isopropyl-9H-carbazole-2-carboxamide] has a Ki of 0.69 nM.
`N/C(=N\C(=O)c1ccc2c3ccccc3n(C3CCOCC3)c2c1)NC[C@H]1CCCO1` [Example 188] showed a Ki of at most 50 nM.
Work on `NC(N)=NC(=O)c1ccc2c3c(F)ccc(F)c3n(C3CCOCC3)c2c1` [Example 140] yielded a Ki of at most 50 nM.
For `NC(N)=NC(=O)c1ccc2c(c1)[nH]c1ccccc12` [Example 2, N-(diaminomethylene)-9H-carbazole-2-carboxamide], the Ki was 2.8 nM.
For `COc1cccc(OC)c1CNC(N)=NC(=O)c1ccc2c3ccccc3n(C3CCOCC3)c2c1` [Example 212], the Ki was at most 50 nM.
`COCCCN/C(N)=N/C(=O)c1ccc2c3ccccc3n(C3CCOCC3)c2c1` [Example 162] showed a Ki of at most 50 nM.
For `Cc1cc(Cn2c3ccccc3c3ccc(C(=O)N=C(N)N)cc32)no1` [Example 141], the Ki was at most 50 nM.
Compound `N/C(=N\C(=O)c1ccc2c3ccccc3n(C3CCOCC3)c2c1)NCC1CCCCC1` [Example 204] has a Ki of at most 50 nM.
In the case of `N/C(=N\C(=O)c1ccc2c3ccccc3n(C3CCOCC3)c2c1)NCc1cccs1` [Example 180], the Ki is reported as at most 50 nM.
`N/C(=N\C(=O)c1ccc2c3ccccc3n(C3CCOCC3)c2c1)NC1CCOCC1` [Example 182] gave a Ki of at most 50 nM.
`N/C(=N\C(=O)c1ccc2c3ccccc3n(C3CCOCC3)c2c1)NCCc1ccccc1` [Example 196] showed a Ki of at most 50 nM.
`CSc1cccc2c1c1ccc(C(=O)N=C(N)N)cc1n2C1CCOCC1` [Example 147] showed a Ki of at most 50 nM.
With `Cc1cccc2c1c1c(F)cc(C(=O)N=C(N)N)cc1n2C1CCOCC1` [Example 145] the Ki was at most 50 nM.
In the case of `NC(N)=NC(=O)c1ccc2c3ccc(F)cc3n(C3CCOCC3)c2c1` [Example 114], the Ki is reported as at most 50 nM.
Compound `NC(N)=NC(=O)c1ccc2c3ccccc3n(C3CCN(c4ccccc4)CC3)c2c1` [Example 198] has a Ki of at most 50 nM.
For `NC(N)=NC(=O)C1CCc2c(n(-c3ccccc3)c3ccccc23)C1` (stereo not drawn) [Example 220], the Ki was at most 50 nM.
`NC(N)=NC(=O)c1cc(F)c2c3ccccc3n(C3CCOCC3)c2c1` [Example 11, N-(diaminomethylene)-4-fluoro-9-(tetrahydro-2H-pyran-4-yl)-9H-carbazole-2-carboxamide hydrochloride] showed a Ki of at most 50 nM.
`NC(N)=NC(=O)c1ccc2c3ccccc3n(C3CCOCC3)c2c1` [Example 144] gave a Ki of at most 50 nM.
In the case of `N/C(=N\C(=O)c1ccc2c3ccccc3n(C3CCOCC3)c2c1)NCC1CCOCC1` [Example 206], the Ki is reported as at most 50 nM.
In the case of `NC(N)=NC(=O)c1ccc2c3c(Cl)cccc3n(C3CCOCC3)c2c1` [Example 115], the Ki is reported as at most 50 nM.
`CC(C)S(=O)(=O)n1c2ccccc2c2ccc(C(=O)N=C(N)N)cc21` [Example 28] gave a Ki of 4.5 nM.

The compounds below were run on MK-801-induced overactivity (assay: MK-801-induced overactivity in mice, kinetic momentum by infrared sensor). Details: mouse, oral, dose 0.01 mg/kg; MK-801 0.3 mg/kg i.p.; total 60 minutes, P<0.05.
Type: in vivo
Experimental: Evaluation of Various Drugs Relative to a Drug for Increasing the Kinetic Momentum of Mice (Methane Phetamine, MK-801) (Method for Measuring a Kinetic Momentum by Discharge of an Infrared Ray)
The effect of improving the positive symptoms and the negative symptoms of schizophrenia by the compound (I) was evaluated by measuring the kinetic momentum that had been […] with administration of the compound in a model causing the symptoms by methane phetamine (which is hereinafter simply referred to as MAP) and MK-801.
Species: Male ICR mouse/number of animals (number of animals per group): 8 to 12 animals per group
The animal was left in a laboratory for 1 hour or longer to be acclimated to the environment, and the animal was taken from the feeding cage, orally administered with a compound to be tested, and then returned to the feeding cage. After 30 minutes, it was put into a cage for measurement, and the kinetic momentum of just the compound to be tested was measured. Further, after 30 minutes, the animal was taken out, and intraperitoneally administered with a drug for increasing kinetic momentum (MAP; 1 mg/kg or MK-801; 0.3 mg/kg, all dissolved in physiological saline), and its kinetic momentum was measured for a certain time (60 minutes) using a device for measuring the kinetic momentum by means of an infrared ray sensor (CompACT AMS, Muromachi Kikai Co., Ltd.). Also, the test was carried out under non-fasting.
The 60 minutes of measurements was classified into three groups: a first half 30 minutes, a second half 30 minutes, and a total 60 minutes. For a normal mouse (a mouse administered with physiological saline) and a mouse administered with the drug for increasing kinetic momentum, a Student's T test was used for evaluation in each interval. For the group administered with the compound to be tested, a solvent (vehicle) group and a Dunnett's T test were carried out and evaluated. For the evaluation, in case where there was a significant (P<0.05) difference for the total 60 minutes, it was considered to be effective.
`NC(N)=NC(=O)c1ccc2c3ccccc3n(Cc3ccccc3)c2c1` [Example 37] was tested, and the “inhibition of MK-801-induced overactivity” value (“inhibition” below) was “significantly inhibited”.

Same assay, conditions: mouse, oral, dose 0.03 mg/kg; MK-801 0.3 mg/kg i.p.
For `COc1cccc(CN/C(N)=N/C(=O)c2ccc3c4ccccc4n(C4CCOCC4)c3c2)c1` [Example 194], the “inhibition” value was “significantly inhibited”.

Same assay, conditions: mouse, oral, dose 0.1 mg/kg; MK-801 0.3 mg/kg i.p.
`Cc1cccc2c1c1ccc(C(=O)N=C(N)N)cc1n2C1CC=C(F)CC1` (stereo not drawn) [Example 161] was tested, and the “inhibition” value was “significantly inhibited”.
`NC(N)=NC(=O)c1ccc2c3ccccc3n(C3CCC3)c2c1` [Example 22] was tested, and the “inhibition” value was “significantly inhibited”.
In the case of `NC(N)=NC(=O)c1ccc2c3ccccc3n(C3CCCCC3)c2c1` [Example 24], the “inhibition” value is reported as “significantly inhibited”.
